From patent US20220023231A1, “METHOD OF TREATING POSTPRANDIAL INFLAMMATION AND PREVENTING WEIGHT GAIN” (DASMAN DIABETES INSTITUTE, priority 2020, published 2022)

What was measured:
THP-1 cells [1] = assay: Flow cytometry (FACS) assessment of lipid accumulation in TNF-α stimulated THP-1 derived macrophages; format: cell-based, Human; conditions: in response to the presence of TNF-α
Experimental: (§1) Cell culture: Human monocytic leukemia cell line (THP-1) cells were purchased from American Type Culture Collection (ATCC). Cell cultures were maintained in RPMI-1640 culture medium (Gibco, Life Technologies, Grand Island, USA) supplemented with 10% fetal bovine serum (Gibco, Life Technologies, Grand Island, N.Y., USA), 2 mM glutamine (Gibco, Invitrogen, Grand Island, N.Y., USA), 1 mM sodium pyruvate, 10 mM HEPES, 100 ug/m1 Normocin 50 U/ml penicillin and 50 μg/m1 streptomycin (P/S; Gibco, Invitrogen, Grand Island, N.Y., USA) and incubated at 37° C. (with humidity) in 5% CO2.
(§2) Cell stimulation: Prior to stimulation, THP-1 cells were plated in 24-well plates (Costar, Corning Incorporated, Corning, N.Y., USA) at 5×10^5 cells/well cell density unless indicated otherwise. […]

THP-1 cells [2] = assay: IL-1β ELISA and TNF-α / CD11b mRNA expression in macrophage cells after TNF-α; format: cell-based, Human; conditions: in response to TNF-α treatment
Experimental: as §1, §2

[3] = Constant high fat diet (HFD) in mice with daily drinkable dose; format: in vivo, mouse
Description: (§3) A further experiment was designed to test whether constant daily doses of Triacsin C could prevent weight gain (or the development of obesity and other weight gain related diseases). […] Mice were placed on a constant high fat diet (HFD) for up to 5 weeks in the presence of a daily (drinkable) dose of either Triacsin C or the vehicle control (FIG. 9(A)).

human macrophages = assay: Inflammatory and infiltration marker gene expression in human macrophages exposed to palmitic acid; format: cell-based; conditions: 30 minutes pre-treatment before addition of palmitic acid
[4] = system: pro-inflammatory monocytes (CD45+/Ly6C/CD11b+ cells); assay: Acute high fat food feeding in mice, pro-inflammatory monocytes in blood by flow cytometry; format: in vivo, mouse
Experimental: Further experiments were developed to test the utility of Triacsin C as an anti-inflammatory and/or weight gain prevention drug in a mouse model. Base line blood samples were taken from each mouse before feeding. Mice were then administered either Triacsin C (10 mg/m1) or a vehicle (control) in a drinkable form 30 minutes prior to introducing them to high fat food. Four hours after food consumption another blood sample was collected from each mouse and the inflammatory response was measured using flow cytometry to look for pro-inflammatory monocytes (CD45^+/Ly6C/CD11b^+ cells). (See FIGS. 7(A)-7(B)) The experiment was repeated 5 times on non-consecutive days and also confirmed that the dose was safe.
as §3

macrophage = assay: Fatty acid uptake related gene expression and intracellular fat in macrophages/monocytes exposed to palmitic acid; format: cell-based
THP-1 cells [5] = assay: Oil Red O staining of lipid accumulation in TNF-α stimulated THP-1 derived macrophages; format: cell-based, Human; conditions: in response to TNF-α (10 ng/ml)
Experimental: as §1, §2
Oil Red O staining: To determine the degree of lipid accumulation, the accumulation of cytoplasmic triglycerides in cells were measured by staining with Oil Red O (SigmaAldrich, St Louis, Mo., USA). […]

[6] = daily dose, HFD, versus vehicle control
[7] = low daily drinkable dose, HFD up to 5 weeks

Compound	lipid accumulation (FACS, cell size and granulation) (THP-1 cells [1])	inflammatory markers (IL-1B protein, TNF-α mRNA, CD11b mRNA) (THP-1 cells [2])	adipose tissue (fat) of livers [3, 6]	liver size [3, 6]	increase in inflammatory monocytes from long term HFD [3, 7]	weight gain resulting from HFD [3, 7]	infiltration markers (CD11b, CCR2, CD80) (human macrophages)	upregulation of monocytic inflammatory markers (IL-1b, CD11c, HLA-DR) (human macrophages)	safety of the dose ([4]; 10 mg/m1 drinkable, repeated 5 times on non-consecutive days)	inflammatory response in monocytes (CD45+, Ly6C+, CD11b+ cells) ([4]; drinkable, 30 minutes prior to high fat food, blood four hours after food)	reduction of inflammatory upregulation ([4]; lower dose, four-hour acute high fat diet feeding) [%]	pro-inflammatory monocytes ([4]; lower dose, four-hour acute high fat diet feeding, control 34.2%) [%]	amount of intracellular fat found within monocytes (macrophage; data not shown)	expression of fatty acid uptake-related genes (macrophage; pre-treatment, response to palmitic acid (FIG. 5))	lipid accumulation (Oil Red O staining) (THP-1 cells [5])
CCOC(=O)[C@@]1(CCCCCCOc2ccc(Cl)cc2)CO1 [Etomoxir]	increased lipid accumulation														
CCC/C=C/C/C=C/C=C/C=NNN=O [Triacsin C, N-(((2E,4E,7E)-undeca-2,4,7-trienylidene)amino)nitrous amide]	no significant change in apparent lipid accumulation	little to no change in inflammatory markers	significantly less adipose tissue	smaller	prevented the increase in inflammatory monocytes	dramatically prevented	reduce infiltration markers	reduce the upregulation of monocytic inflammatory markers	safe	inhibit the inflammatory response in monocytes	10	25.4	reduced the amount of intracellular fat found within monocytes	inhibited expression of fatty acid uptake-related genes	prevents lipid accumulation
